Test results from PubChem BioAssay AID212 (DTP/NCI, 2004).
“And” between values parts separate entries of the source, which are not always exact repeats. Equal entries are not always repeated. Results filed as inconclusive are left out.

System: BDF1 mice, colon carcinoma 38 sc, T/C %
Assay: NCI In Vivo Anticancer Drug Screen. Data for tumor model Colon Carcinoma 38 (subcutaneous) in B6D2F1 (BDF1) mice
Conditions: endpoint: median tumor weight (est.), higher = larger tumour
Protocol: The antitumor activity of compounds was measured in mice bearing transplantable tumors. Survival or tumor size were measured and the results are expressed as the measurement made in the treated group (T) divided by the measurement made in the vehicle treated control group (C). The tumor model used in this assay is Colon Carcinoma 38 (subcutaneous) in B6D2F1 (BDF1) mice

[1] = dose: 50.0 mg/kg/injection, schedule: Q07DX002 (ip), vehicle: saline
[2] = dose: 100.0 mg/kg/injection, schedule: Q07DX002 (ip), vehicle: saline
[3] = dose: 200.0 mg/kg/injection, schedule: Q07DX002 (ip), vehicle: saline
[4] = dose: 400.0 mg/kg/injection, schedule: Q07DX002 (ip), vehicle: saline
[5] = dose: 800.0 mg/kg/injection, schedule: Q07DX002 (ip), vehicle: saline
[6] = dose: 50.0 mg/kg/injection, schedule: Q07DX002 (ip), vehicle: Klucel (hydroxypropylcellulose) (HPC)
[7] = dose: 100.0 mg/kg/injection, schedule: Q07DX002 (ip), vehicle: Klucel (hydroxypropylcellulose) (HPC)
[8] = dose: 200.0 mg/kg/injection, schedule: Q07DX002 (ip), vehicle: Klucel (hydroxypropylcellulose) (HPC)
[9] = dose: 400.0 mg/kg/injection, schedule: Q07DX002 (ip), vehicle: Klucel (hydroxypropylcellulose) (HPC)
[10] = dose: 800.0 mg/kg/injection, schedule: Q07DX002 (ip), vehicle: Klucel (hydroxypropylcellulose) (HPC)
[11] = dose: 12.5 mg/kg/injection, schedule: Q07DX002 (ip), vehicle: saline
[12] = dose: 25.0 mg/kg/injection, schedule: Q07DX002 (ip), vehicle: suspension in saline
[13] = dose: 50.0 mg/kg/injection, schedule: Q07DX002 (ip), vehicle: suspension in saline
[14] = dose: 100.0 mg/kg/injection, schedule: Q07DX002 (ip), vehicle: suspension in saline
[15] = dose: 25.0 mg/kg/injection, schedule: Q07DX002 (ip), vehicle: saline
[16] = dose: 12.5 mg/kg/injection, schedule: Q07DX002 (ip), vehicle: saline with Tween-80
[17] = dose: 25.0 mg/kg/injection, schedule: Q07DX002 (ip), vehicle: saline with Tween-80
[18] = dose: 50.0 mg/kg/injection, schedule: Q07DX002 (ip), vehicle: saline with Tween-80
[19] = dose: 100.0 mg/kg/injection, schedule: Q07DX002 (ip), vehicle: saline with Tween-80
[20] = dose: 200.0 mg/kg/injection, schedule: Q07DX002 (ip), vehicle: saline with Tween-80
[21] = dose: 400.0 mg/kg/injection, schedule: Q07DX002 (ip), vehicle: saline with Tween-80

## O=c1ncccn1[C@@H]1O[C@H](CO)[C@H](O)C1O (some centres undefined)
[1]
  T/C: 61 % of control and 82 % of control
[2]
  T/C: 65 % of control and 75 % of control
[3]
  T/C: 66 % of control and 84 % of control
[4]
  T/C: 62 % of control and 66 % of control
[5]
  T/C: 67 % of control and 74 % of control

## O=c1cc(-c2ccccc2)[nH]c2c1CCCC2
dose: 900.0 mg/kg/injection, schedule: Q07DX002 (ip), vehicle: saline with Tween-80
  T/C: 101 % of control

## ClCCN(CCCl)c1ccc(/C=C/c2ccccc2)cc1
[6]
  T/C: 71 % of control
[7]
  T/C: 116 % of control
[8]
  T/C: 72 % of control
[9]
  T/C: 71 % of control
[10]
  T/C: 79 % of control

## O=C1CN(CCN2CC(=O)N(CN3CCOCC3)C(=O)C2)CC(=O)N1CN1CCOCC1
dose: 12.5 mg/kg/injection, schedule: Q07DX002 (ip), vehicle: water
  T/C: 168 % of control
dose: 25.0 mg/kg/injection, schedule: Q07DX002 (ip), vehicle: water
  T/C: 158 % of control
dose: 50.0 mg/kg/injection, schedule: Q07DX002 (ip), vehicle: water
  T/C: 36 % of control
dose: 100.0 mg/kg/injection, schedule: Q07DX002 (ip), vehicle: water
  T/C: 113 % of control and 90 % of control
dose: 200.0 mg/kg/injection, schedule: Q07DX002 (ip), vehicle: water
  T/C: 57 % of control

## N=C(N)SCc1c2ccccc2c(CSC(=N)N)c2ccccc12
dose: 6.25 mg/kg/injection, schedule: Q07DX002 (ip), vehicle: suspension in saline
  T/C: 63 % of control
[11]
  T/C: 93 % of control and 100 % of control
dose: 12.5 mg/kg/injection, schedule: Q07DX002 (ip), vehicle: suspension in saline
  T/C: 92 % of control
[12]
  T/C: 83 % of control
[1]
  T/C: 71 % of control and 89 % of control
[13]
  T/C: 64 % of control
[14]
  T/C: 115 % of control
dose: 200.0 mg/kg/injection, schedule: Q07DX002 (ip), vehicle: suspension in saline
  T/C: 97 % of control

## Cn1cnc([N+](=O)[O-])c1Sc1ncn[nH]1
[15]
  T/C: 78 % of control
[12]
  T/C: 112 % of control
[1]
  T/C: 73 % of control
[13]
  T/C: 118 % of control
[2]
  T/C: 79 % of control
[14]
  T/C: 85 % of control
[3]
  T/C: 52 % of control
[4]
  T/C: 65 % of control
dose: 400.0 mg/kg/injection, schedule: Q07DX002 (ip), vehicle: suspension in saline
  T/C: 107 % of control
[5]
  T/C: 84 % of control

## CN1CCN(c2ccc([N+](=O)[O-])c3no[n+]([O-])c23)CC1
dose: 5.0 mg/kg/injection, schedule: Q07DX002 (ip), vehicle: saline with Tween-80
  T/C: 105 % of control
dose: 20.0 mg/kg/injection, schedule: Q07DX002 (ip), vehicle: saline with Tween-80
  T/C: 77 % of control
dose: 40.0 mg/kg/injection, schedule: Q07DX002 (ip), vehicle: saline with Tween-80
  T/C: 68 % of control

## CC1(C)OC2C(COC(=O)c3ccc([N+](=O)[O-])cc3)OC(NC(=O)N(CCCl)N=O)C2O1 (centres undefined)
dose: 6.25 mg/kg/injection, schedule: Q07DX002 (ip), vehicle: saline with Tween-80
  T/C: 62 % of control
[16]
  T/C: 112 % of control and 123 % of control
dose: 12.5 mg/kg/injection, schedule: Q07DX003 (ip), vehicle: saline with Tween-80
  T/C: 106 % of control
[17]
  T/C: 68 % of control
dose: 25.0 mg/kg/injection, schedule: Q07DX003 (ip), vehicle: saline with Tween-80
  T/C: 88 % of control
[18]
  T/C: 61 % of control and 82 % of control
dose: 50.0 mg/kg/injection, schedule: Q07DX003 (ip), vehicle: saline with Tween-80
  T/C: 68 % of control
[19]
  T/C: 48 % of control and 67 % of control
dose: 100.0 mg/kg/injection, schedule: Q07DX003 (ip), vehicle: saline with Tween-80
  T/C: 40 % of control
dose: 200.0 mg/kg/injection, schedule: Q07DX003 (ip), vehicle: saline with Tween-80
  T/C: 4 % of control

## CC(C)=CCNc1ncnc2c1ncn2C1OC(CO)C(O)C1O (centres undefined)
[16]
  T/C: 61 % of control
[11]
  T/C: 102 % of control
[15]
  T/C: 89 % of control
[18]
  T/C: 96 % of control
[19]
  T/C: 44 % of control
[2]
  T/C: 97 % of control
[20]
  T/C: 75 % of control

## Cc1ccc(C2NC(=O)c3ccccc3N2)s1 (centres undefined)
dose: 25.0 mg/kg/injection, schedule: Q07DX002 (ip), vehicle: Klucel (hydroxypropylcellulose) (HPC)
  T/C: 99 % of control
[6]
  T/C: 92 % of control
[7]
  T/C: 103 % of control
[8]
  T/C: 92 % of control
[9]
  T/C: 84 % of control
[10]
  T/C: 90 % of control

## C[C@H](N)C(=O)N[C@@H]1[C@H]2C(=C(O)C[C@@H](O)[C@@H]2O)C(=O)O[C@@H]1C
dose: 150.0 mg/kg/injection, schedule: Q07DX002 (ip), vehicle: saline
  T/C: 65 % of control
dose: 300.0 mg/kg/injection, schedule: Q07DX002 (ip), vehicle: saline
  T/C: 96 % of control
dose: 1200.0 mg/kg/injection, schedule: Q07DX002 (ip), vehicle: saline
  T/C: 90 % of control
dose: 2400.0 mg/kg/injection, schedule: Q07DX002 (ip), vehicle: saline
  T/C: 96 % of control

## ClCCCN1CCCCC1CCl (centres undefined)
dose: 0.78 mg/kg/injection, schedule: Q07DX002 (ip), vehicle: saline
  T/C: 80 % of control and 86 % of control

## NC1CCCCC1N.O=C1C=CC(=C(c2ccc(O)cc2)c2ccccc2S(=O)(=O)[O-])C=C1.O=[N+]([O-])[O-].[Pt+4]
dose: 1.56 mg/kg/injection, schedule: Q07DX002 (ip), vehicle: saline
  T/C: 14 % of control

## CNC=O
[3]
  T/C: 110 % of control
[4]
  T/C: 150 % of control
[5]
  T/C: 55 % of control
dose: 1600.0 mg/kg/injection, schedule: Q07DX002 (ip), vehicle: saline
  T/C: 75 % of control

## CC(=O)OC1=NC(C)c2c1cc(OC(C)=O)[nH]c2=O (centres undefined)
dose: 6.25 mg/kg/injection, schedule: Q07DX002 (ip), vehicle: Klucel (hydroxypropylcellulose) (HPC)
  T/C: 124 % of control
dose: 12.5 mg/kg/injection, schedule: Q07DX002 (ip), vehicle: Klucel (hydroxypropylcellulose) (HPC)
  T/C: 70 % of control and 85 % of control
[8]
  T/C: 100 % of control

## CCCCCCCCCCS(=O)CC(CO)NC(=O)/C=C/c1c(C)[nH]c(=O)[nH]c1=O (centres undefined)
dose: 1.5 mg/kg/injection, schedule: Q07DX002 (ip), vehicle: distilled water + Tween-80
  T/C: 76 % of control and 96 % of control
dose: 3.0 mg/kg/injection, schedule: Q07DX002 (ip), vehicle: distilled water + Tween-80
  T/C: 109 % of control and 96 % of control
dose: 12.0 mg/kg/injection, schedule: Q07DX002 (ip), vehicle: distilled water + Tween-80
  T/C: 112 % of control and 115 % of control
dose: 48.0 mg/kg/injection, schedule: Q07DX002 (ip), vehicle: distilled water + Tween-80
  T/C: 80 % of control

## C[C@]12CC[C@@H]3c4ccc(OC(=O)Cc5ccc(N(CCCl)CCCl)cc5)cc4CC[C@H]3[C@@H]1CC[C@@H]2OC(=O)Cc1ccc(N(CCCl)CCCl)cc1
[18]
  T/C: 185 % of control
[19]
  T/C: 176 % of control
[20]
  T/C: 173 % of control and 201 % of control
[21]
  T/C: 256 % of control
dose: 800.0 mg/kg/injection, schedule: Q07DX002 (ip), vehicle: saline with Tween-80
  T/C: 195 % of control

## CC[C@H]1CN2CCc3cc(OC)c(OC)cc3[C@@H]2C[C@@H]1C[C@H]1NCCc2cc(O)c(OC)cc21
dose: 3.0 mg/kg/injection, schedule: Q07DX002 (ip), vehicle: suspension in saline
  T/C: 101 % of control
dose: 6.0 mg/kg/injection, schedule: Q07DX002 (ip), vehicle: suspension in saline
  T/C: 110 % of control
dose: 12.0 mg/kg/injection, schedule: Q07DX002 (ip), vehicle: suspension in saline
  T/C: 98 % of control
dose: 24.0 mg/kg/injection, schedule: Q07DX002 (ip), vehicle: suspension in saline
  T/C: 89 % of control

## CS(=O)(=O)OCCCCOS(C)(=O)=O
dose: 32.0 mg/kg/injection, schedule: Q01DX005 (ip), vehicle: saline with Tween-80
  T/C: 15 % of control

## OCCOCCN1CCN(CCCN2c3ccccc3Sc3ccc(C(F)(F)F)cc32)CC1
[11]
  T/C: 94 % of control
[1]
  T/C: 99 % of control

## O=S(=O)(N=N/C=C1\C=CC=CN1O)c1cccs1
[16]
  T/C: 85 % of control
[17]
  T/C: 108 % of control and 98 % of control
[18]
  T/C: 92 % of control and 100 % of control
[19]
  T/C: 84 % of control and 99 % of control
[21]
  T/C: 67 % of control
